{
  "source": "patent US4751302A",
  "about": "“Indazole derivatives” (priority 1982, dated 1988)",
  "key": {"[1]": {"tested_on": "carrageenin edema on hind paw", "assay": "Carrageenin edema inhibition, comparison with 3-amino-5-chloroindazole", "format": "in vivo, female Wister rats", "settings": "oral; for inhibition to the (carrageenin) edema: after 3 hours from the injection of 1% carrageenin", "protocol": "(§1) To female Wister rats weighing 130-150 g nothing was fed for 19 hours. Then, the rats were orally administered the test compound. Sixty minutes later, the pad of a hind paw of the rat was injected with 0.1 ml of 1% carrageenin solution. After edema was formed on the paw, paw volume and body temperature of the rat were measured, and movement of the rat was observed. As a result, both 3-amino-5-chloroindazole and Compound (46) show a strong inhibition to the edema, that is, 65% and 59%, respectively,after 3 hours from the injection."}, "[2]": {"assay": "Body temperature / side effects in carrageenin-treated rats", "format": "in vivo, female Wister rats", "protocol": "as §1"}, "[3]": {"assay": "Locomotor activity observation in carrageenin-treated rats", "format": "in vivo, female Wister rats", "settings": "oral, carrageenin-injected rats", "protocol": "as §1"}, "[4]": {"assay": "Superoxide capture by ESR and UV spectra (potassium superoxide / dicyclohexyl-18-crown-6 in acetonitrile)", "format": "biochemical", "settings": "for catch of superoxide / one electron acceptance: ESR and UV", "protocol": "As described in Yoshihiko Oyagi, \"Superoxide and Medical Science\", pp. 120-144, published by Kyoritsu Shuppan, a superoxide is considered to be one of the factors which cause the inflammation.\nAccording to the description on Transactions of the Faraday Society, 59, 2016-2026 (1963), the UV spectrum of a phenoxy radical is observed at 380-430 nm. When the UV spectrum of a mixture of the 3-amino-5-hydroxyindazole and dicyclohexyl-18-crown-6 is measured in acetonitrile, λmax is observed at 306 nm. If potassium superoxide is added to the mixture, λmax is observed at 403 nm and 426 nm. On the other hand, no absorptions are observed at 350-450 nm when the UV spectra of potassium superoxide and 3-amino-5-hydroxyindazole are measured respectively in the presence of both dicyclohexyl-18-crown-6 and acetonitrile."}, "[5]": {"tested_on": "Carrageenin edema in rat's paw", "assay": "Carrageenin Edema Test in Rat's Paw (anti-inflammatory activity, Table 1)", "format": "in vivo", "settings": "100 mg/kg oral, hydrochloride, rat", "protocol": "An anti-inflammatory activity was measured by orally administering 100 mg/kg of a hydrochloride of the indazole derivative of this invention as set forth in Table 1 to an animal in accordance with the standard method of Carrageenin Edema Test in Rat's Paw described in C. A. Winter et al., Proc. Soc. Exp. Biol. Med., 111, 544 (1962)."}, "[6]": {"tested_on": "Bradykinin inducing edema", "assay": "Anti-edema test, bradykinin inducing edema (Table 2)", "format": "in vivo, rat", "settings": "100 mg/kg oral, after 30 minutes", "protocol": "(§2) […] A. Winter et al., NonSteroidal Anti-inflammatory Drugs. As an edema inducing substance, bradykinin, histamine and serotonin were employed. […] Bradykinin inducing edema inhibition and histamine inducing edema inhibition were measured after 30 minutes of the administration, and serotonin inducing edema inhibition was measured after 3 hours of the administration."}, "[7]": {"tested_on": "Histamine inducing edema", "assay": "Anti-edema test, histamine inducing edema (Table 2)", "format": "in vivo, rat", "settings": "100 mg/kg oral, after 30 minutes", "protocol": "as §2"}, "[8]": {"tested_on": "Serotonin inducing edema", "assay": "Anti-edema test, serotonin inducing edema (Table 2)", "format": "in vivo, rat", "settings": "100 mg/kg oral, after 3 hours", "protocol": "as §2"}, "[9]": {"tested_on": "acetic acid-writing", "assay": "Analgesic activity, acetic acid-writing test (Table 3)", "format": "in vivo, animal (rat); standard mouse acetic acid-writing test", "settings": "100 mg/kg oral"}, "[10]": {"assay": "in vivo", "settings": "mouse, ip, intraperitoneal, hydrochloride, male ddy mice"}, "[11]": {"settings": "potassium superoxide, dicyclohexyl-18-crown-6, acetonitrile"}},
  "note": "“And” between values parts separate entries of the source, which are not always exact repeats. Identical values can stand only once. “Also recorded” adds a separate entry of the source.",
  "data": [
    {"smiles": "Nc1n[nH]c2ccc(Cl)cc12", "note": "[3-amino-5-chloroindazole, reference compound]", "values": [
      {"measurement": "inhibition to the (carrageenin) edema", "setting": "[1]", "result": 65, "unit": "%"},
      {"measurement": "decrease of body temperature", "setting": "[2]; oral, carrageenin-injected rats", "result": "3-4 °C"},
      {"measurement": "depression of locomotor activity", "setting": "[3]", "result": "remarkable depression of locomotor activity"}
    ]},
    {"smiles": "Nc1n[nH]c2ccc(O)cc12", "note": "[3-amino-5-hydroxyindazole, 3-Amino-5-hydroxyindazole]", "values": [
      {"measurement": "ESR signals on addition to superoxide mixture (phenoxy radical)", "setting": "[4]; [11]", "result": "six superfine signals are observed"},
      {"measurement": "catch of superoxide / one electron acceptance", "setting": "[4]; [11]", "result": "a phenoxy radical is produced"},
      {"measurement": "UV λmax after adding potassium superoxide (phenoxy radical)", "setting": "[4]; with potassium superoxide and dicyclohexyl-18-crown-6 in acetonitrile", "result": "403 nm and 426 nm"}
    ]},
    {"smiles": "CCN(CC)CCCNc1n[nH]c2ccc(Cl)cc12", "note": "[(46), 3-(3-Diethylaminopropylamino)-5-chloroindazole]", "values": [
      {"measurement": "inhibition in vivo at 100 mg/kg", "setting": "[5]", "result": 59, "unit": "%"},
      {"measurement": "Bradykinin inducing edema Inhibition", "setting": "[6]", "result": 14.7, "unit": "%"},
      {"measurement": "Histamine inducing edema Inhibition", "setting": "[7]", "result": 31.0, "unit": "%"},
      {"measurement": "Serotonin inducing edema Inhibition", "setting": "[8]", "result": 73.4, "unit": "%"},
      {"measurement": "Carrageenin edema inhibition activity relative to 3-amino-5-chloroindazole", "setting": "[1]", "result": "the same Carrageenin edema inhibition activity as 3-amino-5-chloroindazole"},
      {"measurement": "inhibition to the (carrageenin) edema", "setting": "[1]", "result": 59, "unit": "%"},
      {"measurement": "side effects (decrease of body temperature, depression of locomotor activity), words", "setting": "[2]; relative to 3-amino-5-chloroindazole", "result": "can relieve the side effects of 3-amino-5-chloroindazole"},
      {"measurement": "Inhibition (acetic acid-writing, analgesic activity)", "setting": "[9]", "result": 52, "unit": "%"},
      {"measurement": "LD50", "setting": "[10]", "result": 211, "unit": "mg/kg"}
    ]},
    {"smiles": "Nc1n[nH]c2ccc(O)cc12", "note": "[(162), 3-Amino-5-hydroxyindazole]", "values": [
      {"measurement": "inhibition in vivo at 100 mg/kg", "setting": "[5]", "result": 45, "unit": "%"},
      {"measurement": "catch of superoxide / one electron acceptance", "setting": "[4]; [11]", "result": "can catch the superoxide; also recorded: accepts one electron from the superoxide"},
      {"measurement": "LD50", "setting": "[10]", "result": 243, "unit": "mg/kg"}
    ]}
  ]
}
